Target: NLRP3 (Homo sapiens, UniProt Q96P20)
Assay: THP-1 cells pyroptosis assay
Assay type: cell-based
Design: Seed THP-1 cells (25,000 cells/well) containing 1.0 μg/ml LPS; host or cells: THP-1 cells, LPS-primed, nigericin-stimulated
Conditions: 1.0 μg/ml LPS, nigericin 5 μM, resazurin readout
Description: It is well established that the activation of NLRP3 leads to cell pyroptosis and this feature plays an important part in the manifestation of clinical disease (Yan-gang Liu et al., Cell Death & Disease, 2017, 8(2), e2579; Alexander Wree et al., Hepatology, 2014, 59(3), 898-910; Alex Baldwin et al., Journal of Medicinal Chemistry, 2016, 59(5), 1691-1710; Ema Ozaki et al., Journal of Inflammation Research, 2015, 8, 15-27; Zhen Xie & Gang Zhao, Neuroimmunology Neuroinflammation, 2014, 1(2), 60-65; Mattia Cocco et al., Journal of Medicinal Chemistry, 2014, 57(24), 10366-10382; T. Satoh et al., Cell Death & Disease, 2013, 4, e644). Therefore, it is anticipated that inhibitors of NLRP3 will block pyroptosis, as well as the release of pro-inflammatory cytokines (e.g. IL-1β) from the cell.
THP-1 cells (ATCC #TIB-202) were grown in RPMI containing L-glutamine (Gibco #11835) supplemented with 1 mM sodium pyruvate (Sigma #S8636) and penicillin (100 units/ml)/streptomycin (0.1 mg/ml) (Sigma #P4333) in 10% Fetal Bovine Serum (FBS) (Sigma #F0804). The cells were routinely passaged and grown to confluency (˜10^6 cells/ml). On the day of the experiment, THP-1 cells were harvested and resuspended into RPMI medium (without FBS). The cells were then counted and viability (>90%) checked by Trypan blue (Sigma #T8154). Appropriate dilutions were made to give a concentration of 625,000 cells/ml. To this diluted cell solution was added LPS (Sigma #L4524) to give a 1 μg/ml Final Assay Concentration (FAC). 40 μl of the final preparation was aliquoted into each well of a 96-well plate. The plate thus prepared was used for compound screening.
The following method step-by-step assay was followed for compound screening. • 1. Seed THP-1 cells (25,000 cells/well) containing 1.0 μg/ml LPS in 40 μl of RPMI medium (without FBS) in 96-well, black walled, clear bottom cell culture plates coated with poly-D-lysine (VWR #734-0317) • 2. Add […] compound (8 points half-log dilution, with 10 μM top dose) or vehicle (DMSO 0.1% FAC) to the appropriate wells • 3. Incubate for 3 hrs at 37° C. in 5% CO2 • 4. Add 5 μl nigericin (Sigma #N7143) (FAC 5 μM) to all wells • 5. Incubate for 1 hr at 37° C. and 5% CO2 • 6. At the end of the incubation period, spin plates at 300×g for 3 mins and remove supernatant • 7. Then add 50 μl of resazurin (Sigma #R7017) (FAC 100 μM resazurin in RPMI medium without FBS) and incubate plates for a further 1-2 hrs at 37° C. and 5% CO2 • 8. Plates were read in an Envision reader at Ex 560 nm and Em 590 nm • 9. IC50 data is fitted to a non-linear regression equation (log inhibitor vs response-variable slope 4-parameters)

NLRP3, sequence (Q96P20 whole entry): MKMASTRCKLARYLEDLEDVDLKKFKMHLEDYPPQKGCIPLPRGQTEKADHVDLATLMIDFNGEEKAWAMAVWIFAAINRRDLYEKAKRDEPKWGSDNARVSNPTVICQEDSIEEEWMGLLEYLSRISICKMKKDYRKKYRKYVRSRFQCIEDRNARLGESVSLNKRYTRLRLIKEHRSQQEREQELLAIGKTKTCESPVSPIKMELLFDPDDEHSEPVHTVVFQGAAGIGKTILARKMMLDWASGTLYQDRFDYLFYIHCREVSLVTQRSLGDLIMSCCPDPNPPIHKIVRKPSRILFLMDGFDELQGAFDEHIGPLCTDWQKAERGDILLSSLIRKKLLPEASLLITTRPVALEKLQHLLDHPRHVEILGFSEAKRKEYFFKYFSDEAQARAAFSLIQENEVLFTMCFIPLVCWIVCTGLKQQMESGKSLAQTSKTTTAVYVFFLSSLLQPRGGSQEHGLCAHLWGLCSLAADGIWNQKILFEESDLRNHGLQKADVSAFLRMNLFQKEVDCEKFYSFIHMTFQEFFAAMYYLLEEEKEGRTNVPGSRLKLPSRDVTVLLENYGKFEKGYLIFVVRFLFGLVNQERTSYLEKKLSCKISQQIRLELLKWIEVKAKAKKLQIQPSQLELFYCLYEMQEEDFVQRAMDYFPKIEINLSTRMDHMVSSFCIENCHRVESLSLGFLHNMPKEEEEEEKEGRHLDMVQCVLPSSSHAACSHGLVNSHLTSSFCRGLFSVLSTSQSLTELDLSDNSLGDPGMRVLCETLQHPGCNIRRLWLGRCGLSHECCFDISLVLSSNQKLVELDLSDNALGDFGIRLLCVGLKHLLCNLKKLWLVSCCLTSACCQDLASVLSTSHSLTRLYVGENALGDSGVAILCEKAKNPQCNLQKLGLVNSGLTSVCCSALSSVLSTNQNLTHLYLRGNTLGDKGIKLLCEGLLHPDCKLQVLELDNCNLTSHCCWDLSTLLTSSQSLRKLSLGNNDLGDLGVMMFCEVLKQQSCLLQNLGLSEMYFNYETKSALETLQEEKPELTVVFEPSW

IC50 [nM]	Structure (SMILES)
640 to 2560	Cn1nc(S(=O)(=O)NC(=O)Nc2c3c(cc4c2CCC4)CCC3)cc1C(=O)N1CC(F)C1 [Example 61, 5-(3-Fluoroazetidine-1-carbonyl)-N-((1,2,3,5,6,7-hexahydro-s-indacen-4-yl)carbamoyl)-1-methyl-1H-pyrazole-3-sulfonamide]
640 to 2560	CC(C)c1cccc(C(C)C)c1NC(=O)NS(=O)(=O)c1cc(C(=O)N(C)C2CCC2)n(C)n1 [Example 8, N-Cyclobutyl-3-(N-((2,6-diisopropylphenyl)carbamoyl)sulfamoyl)-N,1-dimethyl-1H-pyrazole-5-carboxamide]
640 to 2560	Cn1nc(S(=O)(=O)NC(=O)Nc2c3c(cc4c2CCC4)CCC3)cc1C(=O)N1CCOCC1 [Example 28, N-((1,2,3,5,6,7-Hexahydro-s-indacen-4-yl)carbamoyl)-1-methyl-5-(morpholine-4-carbonyl)-1H-pyrazole-3-sulfonamide]
2560 to 10000	Cn1nc(S(=O)(=O)NC(=O)Nc2c3c(cc4c2CCC4)CCC3)cc1C(=O)N1CCC(O)CC1 [Example 24, N-((1,2,3,5,6,7-Hexahydro-s-indacen-4-yl)carbamoyl)-5-(4-hydroxypiperidine-1-carbonyl)-1-methyl-1H-pyrazole-3-sulfonamide]
640 to 2560	CC(C)c1cccc(C(C)C)c1NC(=O)NS(=O)(=O)c1cc(C(=O)N2CCCC2)n(C)n1 [Example 63, N-((2,6-Diisopropylphenyl)carbamoyl)-1-methyl-5-(pyrrolidine-1-carbonyl)-1H-pyrazole-3-sulfonamide]
640 to 2560	CC(C)c1ccc(-c2cncnc2)cc1NC(=O)NS(=O)(=O)c1cc(C(=O)N(C)C)n(C)n1 [Example 34, 3-(N-((2-Isopropyl-5-(pyrimidin-5-yl)phenyl)carbamoyl)sulfamoyl)-N,N,1-trimethyl-1H-pyrazole-5-carboxamide]
2560 to 10000	COCCN(CCOC)C(=O)c1cc(S(=O)(=O)NC(=O)Nc2c(C(C)C)cccc2C(C)C)nn1C [Example 23, 3-(N-((2,6-Diisopropylphenyl)carbamoyl)sulfamoyl)-N,N-bis(2-methoxyethyl)-1-methyl-1H-pyrazole-5-carboxamide]
160 to 640	CCN(CC)C(=O)c1cc(S(=O)(=O)NC(=O)Nc2c(C(C)C)cc(F)cc2C(C)C)nn1C [Example 48, N,N-Diethyl-3-(N-((4-fluoro-2,6-diisopropylphenyl)carbamoyl)sulfamoyl)-1-methyl-1H-pyrazole-5-carboxamide]
640 to 2560	Cn1nc(S(=O)(=O)NC(=O)Nc2c3c(cc4c2CCC4)CCC3)cc1C(=O)N1CCCC1 [Example 59, N-((1,2,3,5,6,7-Hexahydro-s-indacen-4-yl)carbamoyl)-1-methyl-5-(pyrrolidine-1-carbonyl)-1H-pyrazole-3-sulfonamide]
160 to 640	CC(C)c1cc(F)cc(C(C)C)c1NC(=O)NS(=O)(=O)c1cc(C(=O)N2CCC2)n(C(C)C)n1 [Example 30, 5-(Azetidine-1-carbonyl)-N-((4-fluoro-2,6-diisopropylphenyl)carbamoyl)-1-isopropyl-1H-pyrazole-3-sulfonamide]
640 to 2560	CN(CC(O)CO)C(=O)c1cc(S(=O)(=O)NC(=O)Nc2c3c(cc4c2CCC4)CCC3)nn1C (stereo not shown) [Example 19, N-(2,3-Dihydroxypropyl)-3-(N-((1,2,3,5,6,7-hexahydro-s-indacen-4-yl)carbamoyl)sulfamoyl)-N,1-dimethyl-1H-pyrazole-5-carboxamide]
2560 to 10000	CC(C)NC(=O)c1cc(S(=O)(=O)NC(=O)Nc2c(C(C)C)cccc2C(C)C)nn1C [Example 38, 3-(N-((2,6-Diisopropylphenyl)carbamoyl)sulfamoyl)-N-isopropyl-1-methyl-1H-pyrazole-5-carboxamide]
2560 to 10000	COC1CCN(C(=O)c2cc(S(=O)(=O)NC(=O)Nc3c4c(cc5c3CCC5)CCC4)nn2C)C1 (stereo not shown) [Example 25, N-((1,2,3,5,6,7-Hexahydro-s-indacen-4-yl)carbamoyl)-5-(3-methoxypyrrolidine-1-carbonyl)-1-methyl-1H-pyrazole-3-sulfonamide]
2560 to 10000	CC(=O)N(C)CCN(C)C(=O)c1cc(S(=O)(=O)NC(=O)Nc2c3c(cc4c2CCC4)CCC3)nn1C [Example 12, 3-(N-((1,2,3,5,6,7-Hexahydro-s-indacen-4-yl)carbamoyl)sulfamoyl)-N,1-dimethyl-N-(2-(N-methylacetamido)ethyl)-1H-pyrazole-5-carboxamide]
640 to 2560	CNC(=O)c1cc(S(=O)(=O)NC(=O)Nc2c3c(cc4c2CCC4)CCC3)nn1C [Example 66, 3-(N-((1,2,3,5,6,7-Hexahydro-s-indacen-4-yl)carbamoyl)sulfamoyl)-N,1-dimethyl-1H-pyrazole-5-carboxamide]
2560 to 10000	CC(C)c1cccc(C(C)C)c1NC(=O)NS(=O)(=O)c1cc(C(=O)N(C)CC#N)n(C)n1 [Example 40, N-(Cyanomethyl)-3-(N-((2,6-diisopropylphenyl)carbamoyl)sulfamoyl)-N,1-dimethyl-1H-pyrazole-5-carboxamide]
640 to 2560	CN(C(=O)c1cc(S(=O)(=O)NC(=O)Nc2c3c(cc4c2CCC4)CCC3)nn1C)C1COC1 [Example 17, 3-(N-((1,2,3,5,6,7-Hexahydro-s-indacen-4-yl)carbamoyl)sulfamoyl)-N,1-dimethyl-N-(oxetan-3-yl)-1H-pyrazole-5-carboxamide]
640 to 2560	CC(C)c1cccc(C(C)C)c1NC(=O)NS(=O)(=O)c1cc(C(=O)N(C)CCO)n(C)n1 [Example 75, 3-(N-((2,6-Diisopropylphenyl)carbamoyl)sulfamoyl)-N-(2-hydroxyethyl)-N,1-dimethyl-1H-pyrazole-5-carboxamide]
640 to 2560	CC(C)c1ccc(-c2cnn(C)c2)cc1NC(=O)NS(=O)(=O)c1cc(C(=O)N(C)C)n(C)n1 [Example 36, 3-(N-((2-Isopropyl-5-(1-methyl-1H-pyrazol-4-yl)phenyl)carbamoyl)sulfamoyl)-N,N,1-trimethyl-1H-pyrazole-5-carboxamide]
640 to 2560	CC(=O)N1CC(n2ccc(S(=O)(=O)NC(=O)Nc3c4c(cc5c3CCC5)CCC4)n2)C1 [Example 3, 1-(1-Acetylazetidin-3-yl)-N-((1,2,3,5,6,7-hexahydro-s-indacen-4-yl)carbamoyl)-1H-pyrazole-3-sulfonamide]
2560 to 10000	CN(C)CCCN(C)C(=O)c1cc(S(=O)(=O)NC(=O)Nc2c3c(cc4c2CCC4)CCC3)nn1C [Example 6, N-(3-(Dimethylamino)propyl)-3-(N-((1,2,3,5,6,7-hexahydro-s-indacen-4-yl)carbamoyl)sulfamoyl)-N,1-dimethyl-1H-pyrazole-5-carboxamide]
640 to 2560	CCN(CC)C(=O)c1cc(S(=O)(=O)NC(=O)Nc2c(C(C)C)cccc2C(C)C)nn1C [Example 57, 3-(N-((2,6-Diisopropylphenyl)carbamoyl)sulfamoyl)-N,N-diethyl-1-methyl-1H-pyrazole-5-carboxamide]
2560 to 10000	CC(=O)N1CCC(n2ccc(S(=O)(=O)NC(=O)Nc3c4c(cc5c3CCC5)CCC4)n2)CC1 [Example 5, 1-(1-Acetylpiperidin-4-yl)-N-((1,2,3,5,6,7-hexahydro-s-indacen-4-yl)carbamoyl)-1H-pyrazole-3-sulfonamide]
2560 to 10000	COCCNC(=O)c1cc(S(=O)(=O)NC(=O)Nc2c3c(cc4c2CCC4)CCC3)nn1C [Example 77, 3-(N-((1,2,3,5,6,7-Hexahydro-s-indacen-4-yl)carbamoyl)sulfamoyl)-N-(2-methoxyethyl)-1-methyl-1H-pyrazole-5-carboxamide]
2560 to 10000	CN1CCn2nc(S(=O)(=O)NC(=O)Nc3c4c(cc5c3CCC5)CCC4)cc2C1=O [Example 4, N-((1,2,3,5,6,7-Hexahydro-s-indacen-4-yl)carbamoyl)-5-methyl-4-oxo-4,5,6,7-tetrahydropyrazolo[1,5-a]pyrazine-2-sulfonamide]

— patent publication US20210122739A1, “NOVEL SULFONAMIDE CARBOXAMIDE COMPOUNDS” (Inflazome Limited, priority 2017, published 2021)
